# Data published in patent publication US20230357349A1, “GLUCAGON DELIVERY VIA ENZYMATIC ACTUATION” (University of Notre Dame du Lac, priority 2022, published 2023).
# Peptide text beside a SMILES is read from it. * marks the point of attachment. Palmitoyl = CCCCCCCCCCCCCCCC(=O)*; Decanoyl = CCCCCCCCCC(=O)*
# Tests used:
# [1] = pH-dependent release of encapsulated 3 kDa FITC-dextran to screen PA sequences; type: physicochemical; conditions: 3 kDa FITC-dextran release; pH 7 minus pH 5 at 5 hr
# Text: GOx conversion of physiological levels of glucose to yield gluconic acid can lead to a microenvironmental pH in the range of ˜4-5.6. Accordingly, a molecular design was envisioned bearing the typical saturated alkyl chain and β-sheet-forming sequence coupled to glutamic acid as the hydrophilic domain; the pKa of its carboxylate R-group (˜4.5) can shift upward in the range of 4.5-6 due to aggregation effects from PA self-assembly. […] Different PA sequences were synthesized to vary the alkyl tail length (C10 and C16) and valine (V)-alanine (A) β-sheet sequence (V2A2, VA3, A2) with a conserved hydrophilic head group (E2). The intention of screening this small set of molecules was to probe pH-responsive release to determine the optimal balance of attractive and repulsive forces required for the envisioned application of assembly at normal glucose (i.e., low pH actuated by GOx) but disassembly and glucagon release in low glucose conditions (i.e., neutral-buffered physiological pH). […] The selected sequence has a shorter C10 alkyl segment than commonly used in most reported PA materials. The V2A2 sequence is thought to be effective for β-sheet hydrogen bonding, while still being shorter than most commonly explored sequences. […] Thus, a reduction in cohesive forces from a shorter alkyl segment and a 4-residue β-sheet forming segment was thought to enable more rapid responsiveness dependent on the charge state of the glutamic acid residues.
# Hydrogels were prepared in all cases in a pH 5 buffer at 1% w/v to ensure initial gelation. […] It is noted that catalase was added to these formulations in order to catalyze the conversion of the toxic GOx byproduct, H2O2, into H2O and O2 in advance of in vivo application, as is commonly done to reduce toxicity for other GOx-based glucose-responsive materials.
# [2] = Oscillatory rheology of 1% w/v PA samples in buffers of various pH; type: physicochemical; conditions: for storage modulus G′: 1% w/v, 1% strain, 10 rad/s
# Method: The C10-V2A2E2 peptide (SEQ ID NO: 4) amphiphile was first dissolved in DI water at a concentration of 2% (w/v). The solution was adjusted to pH 7.4 using 0.1 M HCl, and then mixed with an equal volume of citrate-phosphate buffer (150 mM buffer+150 mM NaCl) at different pH (4, 5, 6, 7, 8) to form a gel at a concentration of 1% (w/v) in a final buffer concentration of 150 mM.
# (§1) Dynamic oscillatory rheology was performed on a TA Instruments Discovery HR-2 rheometer fitted with a Peltier stage using a parallel plate geometry with diameter of 25 mm to test the mechanical properties of all peptide hydrogels. Samples were prepared at a concentration of 1% (w/v) in buffers of different pH or glucose concentration, as described above, and measured 24 h after gel preparation. An amplitude sweep was first performed to determine the linear viscoelastic range for each hydrogel condition, and then a frequency sweep was performed at constant strain. Subsequently, a time-sweep (1% strain, 10 rad/s angular frequency) was performed for all hydrogels to measure and compare the storage modulus (G′).
# Vial inversion affords a crude means to inspect bulk differences in apparent hydrogelation. By contrast, rheological testing enables quantitative insights into the mechanical and dynamic properties of these materials. Oscillatory rheology was thus performed to quantify the observed pH-dependent differences in hydrogelation. Samples were first assessed with a strain sweep to determine the linear viscoelastic range, and then gel-forming samples were subjected to a frequency sweep to verify the range of oscillatory frequency rates wherein the storage modulus (G′) exceeded the viscous/loss modulus (G″).
# The G′ values for samples at each pH were compared at a constant strain of 1% and frequency of 10 rad/s. When comparing G′ values across the full range of pH explored (n=2 gels/sample), pH-dependent mechanical properties were clearly evident (FIG. 4E, FIG. 7). […] Samples prepared at pH 8 had G′ measurements at the lower limit of instrument sensitivity.
# [3] = Oscillatory rheology of 1% w/v PA with GOx at various glucose concentrations; type: physicochemical; conditions: pH 7.4 start, 24 h
# Method: The C10-V2A2E2 peptide amphiphile was first dissolved in DI water at a concentration of 2% (w/v). The solution was adjusted to pH 7.4 using 0.1 M HCl, and then mixed with an equal volume of 300 mM NaCl solution containing 440 U/mL GOx and different glucose concentration (0, 100, 200, 300, 400 mg/dL) to achieve final glucose concentrations of 0, 50, 100, 150, and 200 mg/dL and final peptide concentration of 1% (w/v).
# as §1
# After pH-dependent self-assembly and gelation was established, glucose-dependent gelation was explored through the inclusion of GOx to actuate glucose into a pH stimulus. One benefit of hydrogelation of this material at 1% w/v is the significant hydrated and interconnected porosity (FIG. 9A-D) to enable encapsulation of proteins like GOx to drive gelation in response to glucose. Samples of C10-V2A2E2 were prepared at 1% w/v in buffer at pH 7.4, with glucose added to achieve concentrations ranging from 0 to 200 mg/dL (0 to 11.1 mM). These ranges of glucose were selected to span typical physiological glucose levels in the healthy state and extend down to levels corresponding to hypoglycemia. Following equilibration for 24 h, samples were assessed grossly for gelation by vial inversion (FIG. 10A), as performed in pH-dependent gelation studies. […] The material prepared with 100 mg/dL glucose was very viscous but slowly flowed upon inversion, while those prepared at 0 mg/dL and 50 mg/dL were not self-supported on inversion.
# Measurements were collected as before for gels prepared in each of the different glucose-containing buffers. The value of G′ increased with increasing levels of glucose, as follows: 10.2 Pa (0 mg/dL), 19.0 Pa (50 mg/dL), 29.5 Pa (100 mg/dL), 206.6 Pa (150 mg/dL), and 2.4 kPa (200 mg/dL). Given results of pH-dependent gelation for C10-V2A2E2 PA, it was expected that inclusion of GOx would actuate increased glucose level into a local reduction in pH driving hydrogelation. […] The fixed and finite glucose concentrations within these small volume hydrogels may somewhat limit direct comparisons with concentrations for their use in a physiological setting, as a replenishable glucose supply could further stiffen the materials through enhanced pH reduction.
# [4] = pH recorded by microelectrode submerged in PA/GOx hydrogel samples; type: physicochemical; conditions: 24 h, began at pH 7.4
# [5] = system: Streptozotocin (STZ) diabetic mice; assay: Prophylactic hypoglycemia prevention after insulin overdose in diabetic mice
# Method: To assess the ability of this technology to act in a preventative role to limit the onset and severity of hypoglycemia, a mouse model was established. Male C57BL6/J mice, aged 8 weeks, were induced to be diabetic by the destruction of pancreatic β-cells using a single intraperitoneal (i.p.) injection of streptozotocin (STZ, Cayman Chemical) at a dose of 150 mg/kg, according to published dosing protocols. […] Insulin-deficient diabetes was verified at 9-13 days following STZ treatment using handheld blood glucose meters (CVS brand) to ensure unfasted blood glucose (BG) levels of 600+ mg/dL. These glucometers measure blood glucose values in the range of 20-600 mg/dL. For convention in presenting data, values of “high” are plotted as 600 mg/dL, while values of “low” are plotted as 20 mg/dL.
# Mice were fasted overnight for a period of 9 h, after which time BG was again measured. Mice having a fasted BG<450 mg/dL were triaged and removed from further study. Remaining mice were dosed with basal insulin detemir (Levemir®, Novo Nordisk) via subcutaneous (s.c.) injection at a dose of 0.5 IU/kg in a total injection volume of 100 μL. […] This material formulation was verified to be stable following extrusion through a syringe into a pH 7 buffer containing 100 mg/dL glucose. Blood glucose was monitored serially following treatment, which for purposes of data visualization was set as t=0 min. At 2 h following administration of treatments, hypoglycemia was induced by i.p. injection of AOF recombinant human insulin (Gibco) at a dose of ˜2.5 IU/kg in 100 μL of saline. BG levels were monitored for an additional 3 h after insulin overdose to monitor the onset of, and recovery from, hypoglycemia. […] In total n=9 mice per group were assessed by these methods, performing all treatments in two separate experiments on different mouse cohorts at different times and combining the data for analysis here. Mice were fasted for the duration of the study but had continuous access to water. […] Statistical testing between treatment and control groups was performed using one-way ANOVA with Tukey multiple comparison post-hoc testing (GraphPad Prism v9.0).
# STZ mice were fasted to increase sensitivity to both insulin and glucagon and limit confounding data arising from variable eating patterns. After a 9 h fast, basal insulin detemir (Novo Nordisk, Levemir®) was administered to correct blood glucose to within the normoglycemic range for a healthy mouse (˜180-200 mg/dL) to simulate insulin-dependent blood glucose control in diabetes.
# [6] = in vivo; cited from earlier work
# [7] = humans; cited from earlier work
molecule,measurement,setting,value
CCCCCCCCCC(=O)N[C@H](C(=O)N[C@H](C(=O)N[C@@H](C)C(=O)N[C@@H](C)C(=O)N[C@@H](CCC(=O)O)C(=O)N[C@@H](CCC(=O)O)C(N)=O)C(C)C)C(C)C [C10—V2A2E2] (Decanoyl-VVAAEE-NH2),Δ Release % (pH 7-5 at 5 hr),[1],62.6%
same,critical strain,[2]; hydrogel in buffer at pH 5,~55%
same,strain range of linear behavior with G′>G″,[2]; hydrogel in buffer at pH 5,0.1-5%
same,pKa,"[2]; inferred from rheology, TEM, CD, FTIR, ThT, read-out: pKa of glutamic acid residues in the assembled structures",5 to 6
same,storage modulus G′,[2]; pH 4,6.2 kPa
same,storage modulus G′,[2]; pH 5,5.1 kPa
same,storage modulus G′,[2]; pH 6,53.7 Pa
same,storage modulus G′,[2]; pH 7,4.3 Pa
same,storage modulus G′,[2]; pH 8,1.2 Pa
same,storage modulus G′,[3]; 0 mg/dL glucose,10.2 Pa
same,storage modulus G′,[3]; 50 mg/dL glucose,19.0 Pa
same,storage modulus G′,[3]; 100 mg/dL glucose,29.5 Pa
same,storage modulus G′,[3]; 150 mg/dL glucose,206.6 Pa
same,storage modulus G′,[3]; 200 mg/dL glucose,2.4 kPa
same,pH within hydrogel sample,[4]; 0 mg/dL glucose,7.3
same,pH within hydrogel sample,[4]; 200 mg/dL glucose,5.5
CCCCCCCCCC(=O)N[C@H](C(=O)N[C@@H](C)C(=O)N[C@@H](C)C(=O)N[C@@H](C)C(=O)N[C@@H](CCC(=O)O)C(=O)N[C@@H](CCC(=O)O)C(N)=O)C(C)C [C10—VA3E2] (Decanoyl-VAAAEE-NH2),Δ Release % (pH 7-5 at 5 hr),[1],39.1%
CCCCCCCCCCCCCCCC(=O)N[C@@H](C)C(=O)N[C@@H](C)C(=O)N[C@H](C(=O)N[C@H](C(=O)N[C@@H](CCC(=O)O)C(=O)N[C@@H](CCC(=O)O)C(N)=O)C(C)C)C(C)C [C16—A2V2E2] (Palmitoyl-AAVVEE-NH2),Δ Release % (pH 7-5 at 5 hr),[1],38.9%
CCCCCCCCCCCCCCCC(=O)N[C@H](C(=O)N[C@H](C(=O)N[C@@H](C)C(=O)N[C@@H](C)C(=O)N[C@@H](CCC(=O)O)C(=O)N[C@@H](CCC(=O)O)C(N)=O)C(C)C)C(C)C [C16—V2A2E2] (Palmitoyl-VVAAEE-NH2),Δ Release % (pH 7-5 at 5 hr),[1],43.6%
CCCCCCCCCCCCCCCC(=O)N[C@H](C(=O)N[C@@H](C)C(=O)N[C@@H](C)C(=O)N[C@@H](C)C(=O)N[C@@H](CCC(=O)O)C(=O)N[C@@H](CCC(=O)O)C(N)=O)C(C)C [C16—VA3E2] (Palmitoyl-VAAAEE-NH2),Δ Release % (pH 7-5 at 5 hr),[1],53.8%
dasiglucagon,blood glucose relative to buffer control,"[5]; 30 min after treatment, before insulin challenge",sharply increased
same,blood glucose at endpoint of study,"[5]; 300 min, 3 h after insulin challenge, n=9",65.6 ± 10.8 mg/dL
same,minimum (nadir) blood glucose,"[5]; STZ mice, s.c. 0.01 mg dasiglucagon, insulin challenge at 2 h, n=9, SEM",41.1 ± 5.0 mg/dL
same,observations of death,[5]; after insulin overdose,1 of 9
glucagon,half-life in circulation,[6],approximately 5 min
insulin detemir,duration of action,[7],18 to 20 h
